One test deals with Mcl-1 (Homo sapiens (Human), UniProt Q07820). The test can be described thus: Fluorescence polarization anisotropy (FPA) competition assay, FITC-Bak or FITC-Bim BH3 peptide. The class given is binding. The settings on record: read-out: Ki for Inhibition of Mcl-1 by FPA assay. Background: Polarisation of emitted light reports the rotation of a fluorescent probe.
Test [1] relates to H929 human cancer cell lines. As to the kind of experiment: Cellular viability / proliferation (Cell TiterGlo, 72 h). Format: cell-based. Summed up: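 Plating is at 1,000 cells/well in 10% FBS medium; after 24 h, compound is added as a 2-fold series starting at 50 μM with under 1% DMSO.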
(In ATP-based viability assays light output follows the ATP content of the culture.)

Where [2] appears, read: H929 cells, 72 h, Cell TiterGlo, 10% FBS, read-out: GI50 on cellular proliferation of H929 human cancer cell lines.
Where [3] appears, read: Homo sapiens, NCI-H929, 72 h, read-out: GI50 on cellular proliferation of H929 human cancer cell lines, H929 cells, 72 h, Cell TiterGlo, 10% FBS.

Where two headings read alike, the source gives them in different places.

Sequence of Mcl-1 (Q07820 172-327): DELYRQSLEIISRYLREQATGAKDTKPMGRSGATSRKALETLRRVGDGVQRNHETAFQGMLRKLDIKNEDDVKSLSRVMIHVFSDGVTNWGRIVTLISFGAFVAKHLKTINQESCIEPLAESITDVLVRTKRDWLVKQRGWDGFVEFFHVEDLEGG

As a reminder, the Ki is a dissociation constant, usually derived from enzyme kinetics or from competition with a known ligand. As to `Cc1cc(OCCCc2c3n(c4c(-c5c(C)nn(C)c5C)c(Cl)ccc24)[C@H](C)CN(c2cc(OCc4ccccc4)cc4c2cc(C(=O)O)n4C)C3=O)cc(C)c1Cl` [Example 297, (P, R)-6-(benzyloxy)-4-(7-chloro-10-(3-(4-chloro-3,5-dimethylphenoxy)propyl)-4-methyl-1-oxo-6-(1,3,5-trimethyl-1H-pyrazol-4-yl)-3,4-dihydropyrazino[1,2-a]indol-2(1H)-yl)-1-methyl-1H-indole-2-carboxylic acid], on Mcl-1, the Ki was determined as 2.4 nM. Besides, the GI50 in test [1] (setting [2]) turned out to be 7900 nM.
For `Cc1cc(OCCCc2c3n(c4c(-c5c(C)nn(C)c5C)c(Cl)ccc24)[C@H](C)CN(c2cccc4cc(C(=O)O)n(Cc5nccs5)c24)C3=O)cc(C)c1Cl` [Example 298, 7-[(4R)-7-chloro-10-[3-(4-chloro-3,5-dimethyl-phenoxy)propyl]-4-methyl-1-oxo-6-(1,3,5-trimethylpyrazol-4-yl)-3,4-dihydropyrazino[1,2-a]indol-2-yl]-1-(thiazol-2-ylmethyl)indole-2-carboxylic acid], the Ki on Mcl-1 is less than 1 nM. The GI50 in test [1] (setting [3]) was 290 nM.
In the case of `Cc1cc(OCCCc2c3n(c4c(-c5c(C)nn(C)c5C)c(Cl)ccc24)[C@H](C)CN(c2ccc(OCc4ccccc4)c4c2cc(C(=O)O)n4C)C3=O)cc(C)c1Cl` [Example 299, (P, R)-7-(benzyloxy)-4-(7-chloro-10-(3-(4-chloro-3,5-dimethylphenoxy)propyl)-4-methyl-1-oxo-6-(1,3,5-trimethyl-1H-pyrazol-4-yl)-3,4-dihydropyrazino[1,2-a]indol-2(1H)-yl)-1-methyl-1H-indole-2-carboxylic acid], at Mcl-1, the Ki worked out at 2 nM. The GI50 in test [1] (setting [2]) worked out at 2300 nM.
Consider `Cc1cc(OCCCc2c3n(c4c(-c5c(C)nn(C)c5C)c(Cl)ccc24)[C@H](C)CN(c2cccc4cc(C#N)n(C)c24)C3=O)cc(C)c1Cl` [Example 300, 7-[(4R)-7-chloro-10-[3-(4-chloro-3,5-dimethyl-phenoxy)propyl]-4-methyl-1-oxo-6-(1,3,5-trimethylpyrazol-4-yl)-3,4-dihydropyrazino[1,2-a]indol-2-yl]-1-methyl-indole-2-carbonitrile], for which the Ki on Mcl-1 is 2 nM. Moreover, the GI50 in test [1] (setting [3]) was 5900 nM.
The corresponding values for `Cc1cc(OCCCc2c3n(c4c(-c5c(C)nn(C)c5C)c(Cl)ccc24)[C@H](C)CN(c2cccc4c2cc(C#N)n4C)C3=O)cc(C)c1Cl` [Example 301, 4-[(4R)-7-chloro-10-[3-(4-chloro-3,5-dimethyl-phenoxy)propyl]-4-methyl-1-oxo-6-(1,3,5-trimethylpyrazol-4-yl)-3,4-dihydropyrazino[1,2-a]indol-2-yl]-1-methyl-indole-2-carbonitrile] are 2.8 nM and 8300 nM.
The like results for `COc1ccc(N2C[C@@H](C)n3c(c(CCCOc4cc(C)c(Cl)c(C)c4)c4ccc(Cl)c(-c5c(C)ncnc5C)c43)C2=O)c2c1cc(C(=O)O)n2Cc1ccccn1` [Example 302, 7-[(4R)-7-chloro-10-[3-(4-chloro-3,5-dimethyl-phenoxy)propyl]-6-(4,6-dimethylpyrimidin-5-yl)-4-methyl-1-oxo-3,4-dihydropyrazino[1,2-a]indol-2-yl]-4-methoxy-1-(2-pyridylmethyl)indole-2-carboxylic acid] were, in that order, less than 1 nM and less than 200 nM.
The like results for `Cc1cc(OCCCc2c3n(c4c(-c5c(C)nn(C)c5C)c(Cl)ccc24)[C@H](C)CN(c2cccc4cc(C(=O)O)n(Cc5cscn5)c24)C3=O)cc(C)c1Cl` [Example 304, 7-[(4R)-7-chloro-10-[3-(4-chloro-3,5-dimethyl-phenoxy)propyl]-4-methyl-1-oxo-6-(1,3,5-trimethylpyrazol-4-yl)-3,4-dihydropyrazino[1,2-a]indol-2-yl]-1-(thiazol-4-ylmethyl)indole-2-carboxylic acid] were, in that order, less than 1 nM and 370 nM.
`Cc1cc(OCCCc2c3n(c4c(-c5c(C)nn(C)c5C)c(Cl)ccc24)[C@H](C)CN(c2cc(O)cc4c2cc(C(=O)O)n4C)C3=O)cc(C)c1Cl` [Example 305, (M, R)-4-(7-chloro-10-(3-(4-chloro-3,5-dimethylphenoxy)propyl)-4-methyl-1-oxo-6-(1,3,5-trimethyl-1H-pyrazol-4-yl)-3,4-dihydropyrazino[1,2-a]indol-2(1H)-yl)-6-hydroxy-1-methyl-1H-indole-2-carboxylic acid]: the Ki on Mcl-1 is less than 1 nM. Also, the GI50 in test [1] (setting [2]) is 6200 nM.
As for `Cc1cc(OCCCc2c3n(c4c(-c5c(C)nn(CCN6CCCC6)c5C)c(Cl)ccc24)[C@H](C)CN(c2cn(C)c4cc(C(=O)O)ccc24)C3=O)cc(C)c1Cl` [Example 306, (R)-3-(7-chloro-10-(3-(4-chloro-3,5-dimethylphenoxy)propyl)-6-(3,5-dimethyl-1-(2-(pyrrolidin-1-yl)ethyl)-1H-pyrazol-4-yl)-4-methyl-1-oxo-3,4-dihydropyrazino[1,2-a]indol-2(1H)-yl)-1-methyl-1H-indole-6-carboxylic acid], the Ki on Mcl-1 was determined as 1.3 nM. For the same compound, in test [1] (setting [3]), the GI50 amounted to 600 nM.
The corresponding values for `Cc1cc(OCCCc2c3n(c4c(-c5c(C)nn(C)c5C)c(Cl)ccc24)[C@H](C)CN(c2cccc4c2cc(-c2nn[nH]n2)n4C)C3=O)cc(C)c1Cl` [Example 307, (4R)-7-chloro-10-[3-(4-chloro-3,5-dimethyl-phenoxy)propyl]-4-methyl-2-[1-methyl-2-(2H-tetrazol-5-yl)indol-4-yl]-6-(1,3,5-trimethylpyrazol-4-yl)-3,4-dihydropyrazino[1,2-a]indol-1-one] are 1.3 nM and 3500 nM.
The corresponding values for `Cc1cc(OCCCc2c3n(c4c(-c5c(C)nn(CC6CCOCC6)c5C)c(Cl)ccc24)[C@H](C)CN(c2cn(C)c4cc(C(=O)O)ccc24)C3=O)cc(C)c1Cl` [Example 308, (R)-3-(7-chloro-10-(3-(4-chloro-3,5-dimethylphenoxy)propyl)-6-(3,5-dimethyl-1-((tetrahydro-2H-pyran-4-yl)methyl)-1H-pyrazol-4-yl)-4-methyl-1-oxo-3,4-dihydropyrazino[1,2-a]indol-2(1H)-yl)-1-methyl-1H-indole-6-carboxylic acid] are less than 1 nM and 410 nM.
As to `Cc1cc(OCCCc2c3n(c4c(-c5c(C)nn(CCN(C)C)c5C)c(Cl)ccc24)[C@H](C)CN(c2cn(C)c4cc(C(=O)O)ccc24)C3=O)cc(C)c1Cl` [Example 309, (R)-3-(7-chloro-10-(3-(4-chloro-3,5-dimethylphenoxy)propyl)-6-(1-(2-(dimethylamino)ethyl)-3,5-dimethyl-1H-pyrazol-4-yl)-4-methyl-1-oxo-3,4-dihydropyrazino[1,2-a]indol-2(1H)-yl)-1-methyl-1H-indole-6-carboxylic acid], the Ki at Mcl-1 is less than 1 nM. For the same compound, the GI50 in test [1] (setting [3]) stood at 530 nM.
In the case of `Cc1cc(OCCCc2c3n(c4c(-c5c(C)nn(C)c5C)c(Cl)ccc24)[C@H](C)CN(c2cc(OCc4ccccc4)cc4c2cc(C(=O)O)n4C)C3=O)cc(C)c1Cl` [Example 310, (M, R)-6-(benzyloxy)-4-(7-chloro-10-(3-(4-chloro-3,5-dimethylphenoxy)propyl)-4-methyl-1-oxo-6-(1,3,5-trimethyl-1H-pyrazol-4-yl)-3,4-dihydropyrazino[1,2-a]indol-2(1H)-yl)-1-methyl-1H-indole-2-carboxylic acid], the Ki at Mcl-1 came out at 1.5 nM. In addition, the GI50 in test [1] (setting [2]) was 8900 nM.
For `Cc1cc(OCCCc2c3n(c4c(-c5c(C)nn(C)c5C)c(Cl)ccc24)[C@H](C)CN(c2cccc4cc(C(=O)O)n(Cc5cncnc5)c24)C3=O)cc(C)c1Cl` [Example 311, 7-[(4R)-7-chloro-10-[3-(4-chloro-3,5-dimethyl-phenoxy)propyl]-4-methyl-1-oxo-6-(1,3,5-trimethylpyrazol-4-yl)-3,4-dihydropyrazino[1,2-a]indol-2-yl]-1-(pyrimidin-5-ylmethyl)indole-2-carboxylic acid], at Mcl-1, the Ki is less than 1 nM. In addition, the GI50 in test [1] (setting [3]) came to 3400 nM.
With `Cc1cc(OCCCc2c3n(c4c(-c5c(C)nn(C)c5C)c(Cl)ccc24)[C@H](C)CN(c2ccc(OCc4ccccc4)c4c2cc(C(=O)O)n4C)C3=O)cc(C)c1Cl` [Example 312, (M, R)-7-(benzyloxy)-4-(7-chloro-10-(3-(4-chloro-3,5-dimethylphenoxy)propyl)-4-methyl-1-oxo-6-(1,3,5-trimethyl-1H-pyrazol-4-yl)-3,4-dihydropyrazino[1,2-a]indol-2(1H)-yl)-1-methyl-1H-indole-2-carboxylic acid], the Ki on Mcl-1 is 1.9 nM. Further, the GI50 in test [1] (setting [2]) was determined as 5700 nM.
For `COc1ccc(N2C[C@@H](C)n3c(c(CCCOc4cc(C)c(Cl)c(C)c4)c4ccc(Cl)c(-c5c(C)nn(C)c5C)c43)C2=O)c2c1cc(C(=O)O)n2Cc1ccccn1` [Example 313, 7-[(4R)-7-chloro-10-[3-(4-chloro-3,5-dimethyl-phenoxy)propyl]-4-methyl-1-oxo-6-(1,3,5-trimethylpyrazol-4-yl)-3,4-dihydropyrazino[1,2-a]indol-2-yl]-4-methoxy-1-(2-pyridylmethyl)indole-2-carboxylic acid], the Ki on Mcl-1 was less than 1 nM. In addition, the GI50 in test [1] (setting [3]) is less than 200 nM.
The like results for `Cc1nc(Cn2c(C(=O)O)cc3cccc(N4C[C@@H](C)n5c(c(CCCOc6cc(C)c(Cl)c(C)c6)c6ccc(Cl)c(-c7c(C)nn(C)c7C)c65)C4=O)c32)no1` [Example 314, 7-[(4R)-7-chloro-10-[3-(4-chloro-3,5-dimethyl-phenoxy)propyl]-4-methyl-1-oxo-6-(1,3,5-trimethylpyrazol-4-yl)-3,4-dihydropyrazino[1,2-a]indol-2-yl]-1-[(5-methyl-1,2,4-oxadiazol-3-yl)methyl]indole-2-carboxylic acid] were, in that order, less than 1 nM and 930 nM.

Source of the values: patent US11596639B2, “Substituted indole Mcl-1 inhibitors” (Vanderbilt University, priority 2016, dated 2023).
